Measurements taken from patent US12583870B2, “Azaheteroaryl compound and application thereof” (SHANGHAI BLUERAY BIOPHARMA CO., LTD., priority 2019, dated 2026).

What was measured:
[1] = tested on: trimethylation level of histone H3K27 in G401 cells; experiment: ELISA (H3K27 trimethylation) analysis in G401 cells; type: cell-based; conditions: Homo sapiens, G-401, 72 hours, H3K27me3 standardized to H3
Protocol: 3-fold series dilution with DMSO was carried out on the representative compounds of the present disclosure; and 10 concentration gradients were detected for each compound, with the highest detection concentration of 10 μM. The compounds were diluted 200-fold into the G401 cells cultured in a 96-well plate (DMSO at a final concentration of 0.5%). After the cells, administered with the compound, were cultured for 72 hours, the trimethylation level of the histone H3K27 was detected using the ELISA method.
Extraction of the histone: in a 96-well plate, the compound-treated cells were washed three times with 1×PBS (10×PBS buffer (80 g NaCl (Sigma, product number S3014), 2 g KCl (Sigma, product number 60128), 14.4 g Na2HPO4 (Sigma, product number S5136), and 2.4 g KH2PO4 (Sigma, product number P9791) in 1 L of water, adjusting the pH to 7.4)). 100 μL of 0.4 N HCl was added into each well. The plate was placed at 4° C. and gently agitated for 2 hours to lyse the cells. The cell lysate was then neutralized with 80 μL of neutralization buffer (0.5 M disodium hydrogen phosphate, pH 12.5, 2.5 mM DTT; 1% cocktail (Sigma, product number P8340)) (the cell lysate and the neutralization buffer were thoroughly mixed to uniformity).
ELISA detection method: the cell lysate was transferred in parallel to two 384-well detection plates (PerkinElmer, OptiPlate-384HB, product number 6007290), wherein one of the plates was used to detect the H3K27 trimethylation level and the other plate was used to determine the level of H3. PBS was used to adjust the final volume to 50 μL/well. The plates were coated at 4° C. overnight. On the following day, the solution inside the wells was discarded and the plates were washed 5 times with TBST buffer (1×TBS (10×TBS: 24.2 g Tris (Sigma, product number T6066), 80 g NaCl (Sigma, product number S3014) in 1 L of water, adjusting the pH with HCl to 7.6), 0.1% Tween-20) and dried on an absorbent paper by inversion. 70 μL of blocking buffer (TBST, 5% BSA) was added into the coated reaction wells and the plates were incubated at room temperature for 1 hour. The blocking buffer was discarded and primary antibodies were added (30 μL/well). The desired primary antibodies were all diluted with a blocking buffer and the dilution factor was as follows: anti-H3K27me3 antibody (Cell Signaling Technology, product number 9733), 1:2000 dilution; anti-H3 antibody (Cell Signaling Technology, product number 4499), 1:10000 dilution. After the primary antibodies were added, the plates were placed at room temperature and incubated for 1 hour. After the plates were washed with TBST 5 times, the plates were dried by inversion. A secondary antibody (30 μL/well) was added to each of the reaction wells and the plates were incubated at room temperature for 1 hour. The secondary antibody (anti-rabbit antibody (Jackson ImmunoResearch, product number 111-035-003)) was diluted 2000-fold with a blocking buffer before use. After 1 hour, the plates were washed with TBST and dried by inversion. 30 μL of ECL substrate (Pierce, product number 34080) was added into each well and centrifuged at 2000 rpm for 30 seconds. The signal of each sample was detected using SpectraMax (Molecular Devices). Data processing: H3K27 methylation readings were first standardlized using H3 signals and 0.5% DMSO-treated samples was used as the control to calculate the inhibition percentage of the compounds. Data were fit to obtain Dose-Response curves using the GraphPad prism 5 program and the IC50 values of the test compounds were obtained.

KARPAS-422 cells = experiment: Cell proliferation analysis, KARPAS-422, 13 days, CellTiter-Glo; type: cell-based; conditions: Homo sapiens, 312 h
Protocol: Human B-cell non-Hodgkin lymphoma cells, KARPAS-422 S, were cultured in a culture flask using standard cell culture conditions. The medium contained 15% fetal bovine serum (FBS, Invitrogen, product number 10099-141) and 1% penicillin/streptomycin solution (P/S) RPMI-1640 (Invitrogen, product number 11875), and the culture flask was placed and cultured in a sterile incubator at the temperature of 37° C. and […] with a relative humidity of […] To detect the effect of PRC2 inhibitors on cell proliferation, cells in exponential growth phase were taken and seeded into a 96-well plate (Corning, product number 3904) at a density of 1×10^4 cells/well, and 100 μL of the medium was added into each well. Subsequently, the compounds at different concentrations disclosed in the present disclosure were added into the wells where cells had already been seeded (9 concentration gradients were provided for each compound, with the highest detection concentration at 10 μM, 3-fold gradient dilution) and two replicates in parallel were provided for each treatment concentration. DMSO was at a final concentration of 0.5%. Afterwards, viable cell numbers were determined using Vi-CELL (Beckman Coulter) every 3-4 days. Cells counted were seeded into a new 96-well plate at the same density (1×10^4 cells/well) each time. The wells were supplemented with a fresh medium to 100 μL and at the same time, compounds at different concentrations were added. The cells were cultured to day 13. 100 μL of CellTiter-Glo (CellTiter-GloCellTiter-GloCellTiter-GloCTG) (Promega, product number G7573) was added into each well. The plate was placed in the dark at room temperature for 10-20 minutes and the luminescence signal was read using SpectraMax i3× (Molecular Devices).

Row | SMILES | IC50 [1] [µM] | IC50 (KARPAS-422 cells) [µM]
1 | CN(C)Cc1ccc(-c2cnc(NCc3c(F)ccc4c3CCO4)n3cnnc23)c2ncc(C#N)n12 [5-((dimethylamino)methyl)-8-(5-(((5-fluoro-2,3-dihydrobenzofuran-4-yl)methyl)amino)-[1,2,4]triazolo[4,3-c]pyrimidin-8-yl)imidazo[1,2-a]pyridine-3-carbonitrile] | 0.0007 | 0.0005
2 | Fc1ccc2c(c1CNc1ncc(-c3ccc(Cn4ccnc4)n4ncnc34)c3nncn13)CCO2 [8-(5-((1H-imidazol-1-yl)methyl)-[1,2,4]triazolo[1,5-a]pyridin-8-yl)-N-((5-fluoro-2,3-dihydrobenzofuran-4-yl)methyl)-[1,2,4]triazolo[4,3-c]pyrimidin-5-amine] | 0.0006 | 0.0009
3 | Cc1nc2c(-c3cnc(NCc4c(F)ccc5c4CCO5)n4cnnc34)ccc(C)n2n1 [8-(2,5-dimethyl-[1,2,4]triazolo[1,5-a]pyridin-8-yl)-N-((5-fluoro-2,3-dihydrobenzofuran-4-yl)methyl)-[1,2,4]triazolo[4,3-c]pyrimidin-5-amine] | 0.0013 | 0.0013
4 | Cc1ccc(-c2cnc(NCc3c(F)ccc4c3CCO4)n3cnnc23)c2ncc(CC(=O)N3CCOCC3)n12 [2-(8-(5-(((5-fluoro-2,3-dihydrobenzofuran-4-yl)methyl)amino)-[1,2,4]triazolo[4,3-c]pyrimidin-8-yl)-5-methylimidazo[1,2-a]pyridin-3-yl)-1-morpholinoethan-1-one] | 0.0143 | 0.0057
5 | CN(C)c1nc2c(-c3cnc(NCc4c(F)ccc5c4CCO5)n4cnnc34)cc(F)cn2n1 [8-(2-(dimethylamino)-6-fluoro-[1,2,4]triazolo[1,5-a]pyridin-8-yl)-N-((5-fluoro-2,3-dihydrobenzofuran-4-yl)methyl)-[1,2,4]triazolo[4,3-c]pyrimidin-5-amine] | 0.0018 | 0.0244
6 | Cc1ccc(-c2cnc(NCc3c(F)ccc4c3CCO4)n3cnnc23)c2ncc(C(N)=O)n12 [8-(5-(((5-fluoro-2,3-dihydrobenzofuran-4-yl)methyl)amino)-[1,2,4]triazolo[4,3-c]pyrimidin-8-yl)-5-methylimidazo[1,2-a]pyridine-3-carboxamide] | 0.0035 | 0.0022
7 | Fc1ccc2c(c1CNc1ncc(-c3cccc4nn[nH]c34)c3nncn13)CCO2 [8-(1H-benzo[d][1,2,3]triazol-7-yl)-N-((5-fluoro-2,3-dihydrobenzofuran-4-yl)methyl)-[1,2,4]triazolo[4,3-c]pyrimidin-5-amine] | 0.0007 | 0.0012
8 | CC(C)(O)COCc1ccc(-c2cnc(NCc3c(F)ccc4c3CCO4)n3cnnc23)c2ncnn12 [1-((8-(5-(((5-fluoro-2,3-dihydrobenzofuran-4-yl)methyl)amino)-[1,2,4]triazolo[4,3-c]pyrimidin-8-yl)-[1,2,4]triazolo[1,5-a]pyridin-5-yl)methoxy)-2-methylpropan-2-ol] | 0.0064 | 0.0012
9 | CN(C)c1ccc(-c2cnc(NCc3c(F)ccc4c3CCO4)n3cnnc23)c2ncc(C#N)n12 [5-(dimethylamino)-8-(5-(((5-fluoro-2,3-dihydrobenzofuran-4-yl)methyl)amino)-[1,2,4]triazolo[4,3-c]pyrimidin-8-yl)imidazo[1,2-a]pyridine-3-carbonitrile] | 0.0009 | 0.0009
10 | Cc1ccc(-c2cnc(NCc3c(F)ccc4c3CCO4)n3cnnc23)c2ncc(CC#N)n12 [2-(8-(5-(((5-fluoro-2,3-dihydrobenzofuran-4-yl)methyl)amino)-[1,2,4]triazolo[4,3-c]pyrimidin-8-yl)-5-methylimidazo[1,2-a]pyridin-3-yl)acetonitrile] | 0.007 | 0.0014

The remaining lines, values ahead:

Row | IC50 [1] [µM] | IC50 (KARPAS-422 cells) [µM] | SMILES
11 | 0.0112 | 0.0035 | CN(C)CCN(C)Cc1ccc(-c2cnc(NCc3c(F)ccc4c3CCO4)n3cnnc23)c2ncnn12 [N1-((8-(5-(((5-fluoro-2,3-dihydrobenzofuran-4-yl)methyl)amino)-[1,2,4]triazolo[4,3-c]pyrimidin-8-yl)-[1,2,4]triazolo[1,5-a]pyridin-5-yl)methyl)-N1,N2,N2-trimethylethane-1,2-diamine]
12 | 0.0014 | 0.0012 | Cc1ccc(-c2cnc(NCc3c(F)ccc4c3CCO4)n3cnnc23)c2ncc(C(=O)N(C)C)n12 [8-(5-(((5-fluoro-2,3-dihydrobenzofuran-4-yl)methyl)amino)-[1,2,4]triazolo[4,3-c]pyrimidin-8-yl)-N,N,5-trimethylimidazo[1,2-a]pyridine-3-carboxamide]
13 | 0.0011 | 0.0007 | CN1CCN(Cc2ccc(-c3cnc(NCc4c(F)ccc5c4CCO5)n4cnnc34)c3ncnn23)CC1 [N-((5-fluoro-2,3-dihydrobenzofuran-4-yl)methyl)-8-(5-((4-methylpiperazin-1-yl)methyl)-[1,2,4]triazolo[1,5-a]pyridin-8-yl)-[1,2,4]triazolo[4,3-c]pyrimidin-5-amine]
14 | 0.0002 | 0.0002 | Cc1ccc(-c2cnc(NCc3c(F)ccc4c3CCO4)n3cnnc23)c2nncn12 [N-((5-fluoro-2,3-dihydrobenzofuran-4-yl)methyl)-8-(5-methyl-[1,2,4]triazolo[4,3-a]pyridin-8-yl)-[1,2,4]triazolo[4,3-c]pyrimidin-5-amine]
15 | 0.0032 | 0.0011 | COc1ccc(-c2cnc(NCc3c(F)ccc4c3CCO4)n3cnnc23)c2ncnn12 [N-((5-fluoro-2,3-dihydrobenzofuran-4-yl)methyl)-8-(5-methoxy-[1,2,4]triazolo[1,5-a]pyridin-8-yl)-[1,2,4]triazolo[4,3-c]pyrimidin-5-amine]
16 | 0.0024 | 0.0025 | Cc1ccc(-c2cnc(NCc3c(F)ccc4c3CCO4)n3cnnc23)c2nnnn12 [N-((5-fluoro-2,3-dihydrobenzofuran-4-yl)methyl)-8-(5-methyltetrazolo[1,5-a]pyridin-8-yl)-[1,2,4]triazolo[4,3-c]pyrimidin-5-amine]
17 | 0.0069 | 0.036 | Fc1ccc2c(c1CNc1ncc(-c3ccc(C(F)(F)F)n4ncnc34)c3nncn13)CCO2 [N-((5-fluoro-2,3-dihydrobenzofuran-4-yl)methyl)-8-(5-(trifluoromethyl)-[1,2,4]triazolo[1,5-a]pyridin-8-yl)-[1,2,4]triazolo[4,3-c]pyrimidin-5-amine]
18 | 0.0011 | 0.0011 | Fc1ccc2c(c1CNc1ncc(-c3ccc(CN4CCOCC4)n4ncnc34)c3nncn13)CCO2 [N-((5-fluoro-2,3-dihydrobenzofuran-4-yl)methyl)-8-(5-(morpholinomethyl)-[1,2,4]triazolo[1,5-a]pyridin-8-yl)-[1,2,4]triazolo[4,3-c]pyrimidin-5-amine]
